What was measured:
[1] = Stability of liquid crystal gelatinous composition in human serum; type: in vitro ADME
Experimental: Approximately 100 μL of mono-O-(5,9,13-trimethyltetradeca-4-enoyl)glycerol or approximately 100 μL each of mixed solutions of mono-O-(5,9,13-trimethyltetradeca-4-enoyl)glycerol and Lipiodol at a weight ratio of 10:1, 10:2 or 10:3 were respectively added to vials containing 2 mL of human serum (Human OTC Serum, Access Biologicals). After gently shaking each vial to cause the formation of a gelatinous composition, the vials were allowed to stand undisturbed in a water bath at 37° C. followed by observing immediately thereafter, 10 hours later and 24 hours later.
FIG. 13 depicts captured images indicating changes over time in samples consisting of approximately 100 μL of mono-O-(5,9,13-trimethyltetradeca-4-enoyl)glycerol.

[2] = Liquid crystal structure analysis by small-angle X-ray scattering (SAXS); type: physicochemical; conditions: atmospheric pressure
Experimental: The liquid crystal structure of the aforementioned gelatinous composition was analyzed by small-angle X-ray scattering (SAXS) using the NANO Viewer nanoscale X-ray structural evaluation system (Rigaku). As a result of measuring the aforementioned gelatinous composition packed into pinhole slits under atmospheric pressure, a graph of SAXS intensity distribution (FIG. 3(1)) and peak search results (FIG. 3(2)) were obtained.
The liquid crystal structures of the aforementioned gelatinous compositions were analyzed by small-angle X-ray scattering (SAXS) using the SmartLab high-luminance in-plane X-ray diffraction system (Rigaku). The aforementioned gelatinous composition packed into pinhole slits were measured under atmospheric pressure.
Liquid crystal structure of the aforementioned emulsion was analyzed by small-angle X-ray scattering (SAXS) using the NANO Viewer nanoscale X-ray structural evaluation system (Rigaku). As a result of introducing the emulsion into a capillary tube under atmospheric pressure and measuring with the system at reduced pressure (although the sample per se was at atmospheric pressure), a graph of SAXS intensity distribution (FIG. 5(1)) and peak search results (FIG. 5(2)) were obtained.
The aforementioned emulsion was measured by SAXS in the same manner as Example 4. […]

[3] = Formation of gelatinous composition on mixing with physiological saline; type: physicochemical; conditions: 50% by weight or more of physiological saline, separated saline removed
Experimental: An aqueous medium in the form of a 50% by weight or more of physiological saline was added to mono-O-(5,9,13-trimethyltetradeca-4-enoyl)glycerol followed by carrying out a mixing procedure and removing the separated physiological saline.
Mono-O-(5,9,13-trimethyltetradeca-4-enoyl)glycerol and a contrast agent in the form of Lipiodol were mixed at mixing ratios of 10:5, 70:30, 10:3, 80:20, 10:2, 90:10 and. 10:1. An aqueous medium in the form of 50% by weight or more of physiological saline was added to each mixture followed by carrying out a mixing procedure and removing the separated physiological saline to respectively obtain mixtures.

[4] = Viscosity measurement of the synthesized compound; type: physicochemical; conditions: shear rate: 92 1/s
Description: The results of measuring the ^1H-NMR spectrum and viscosity of the resulting compound were as shown below.
Viscosity: 0.48 Pa·s (shear rate: 92 1/s)

Change of human serum with passage of time ([1]; approx. 100 μL in 2 mL human serum, 37° C., up to 24 hours): gradually became cloudy
Change of gelatinous composition in distilled water instead of human serum ([1]; distilled water, within 24 hours): no change in the gelatinous composition
Liquid crystal structure (SAXS) [2]: inverse hexagonal liquid crystal
Appearance of composition after mixing with physiological saline [3]: cloudy to colorless, clear gel
Viscosity [4]: 0.48 Pa·s
SMILES: CC(=CCCC(=O)OCC(O)CO)CCCC(C)CCCC(C)C (stereo not drawn) [Example 1, Mono-O-(5,9,13-trimethyltetradeca-4-enoyl)glycerol]
Observation in human serum 10 hours after addition ([1]; human serum, 37° C., 10 hours): Cloudiness can be seen to have progressed
Observation in human serum 24 hours after addition ([1]; human serum, 37° C., 24 hours): Cloudiness had progressed even further, although the gelatinous composition remained
Main eluted components by TLC analysis ([1]; human serum, 37° C., 24 hours after addition): mono-O-(5,9,13-trimethyltetradeca-4-enoyl)glycerol and (5,9,13-trimethyl-4-tetradecanoic)carboxylate obtained as a result of hydrolysis
Observation in human serum immediately after addition ([1]; human serum, 37° C., immediately after addition): a gelatinous composition formed and the human serum remained clear
